{
  "source": "patent US20220202725A1",
  "about": "“Modified or Targeted Release Formulations of Linaclotide” (Ironwood Pharmaceuticals, Inc., priority 2015, published 2022)",
  "key": {"[1]": {"tested_on": "retrogradely traced bladder thoracolumbar (TL) DRG neurons", "assay": "Patch clamp recordings from retrogradely traced bladder DRG neurons", "type": "in vivo, C57/BL6 mice", "conditions": "TL DRG neurons from CVH mice, once daily oral gavage for 2 weeks, vs vehicle", "protocol": "Laparotomy was performed on anaesthetized (2-3% isofluorane/0.3 L/min O2) mice. […]; ThermoFisher product nr. C22842 (former LifeTechnologies)) was used for subserosal injection (2-3 ul per injection) in descending colon or dorsal and lateral bladder using a 30G Hamilton needle. Incision was closed with Prolene 6/0 suture (Johnson&Johnson product nr. 8636G). All mice were given 100 ul of buprenorphine (1:12) and Baytril (1:20) for post-operative care and left for 4 days before humanely killed for DRG cell culture.\nRecordings were made from healthy and CVH mice. CVH mice received chronic administration of either vehicle or linaclotide (3 μg/kg/day) for a total duration of 2 weeks. Mice were euthanized via CO2 inhalation and DRGs from thoracolumbar (T10-L1) and lumbosacral (L6-S1) regions removed and digested with 3 mg mL−1 collagenase II (Gibco) and 4 mg mL−1 dispase (Gibco) for 30 min at 37° C., followed by 3 mg mL−1 collagenase II only for 10 min at 37° C. […]\nRecordings were made similarly to those we have described previously (Brierley et al., 2011, ibid). […] Signals were amplified by using an Axopatch 200A amplifier, digitized with a Digidata 1322A and recorded using pCLAMP 9 software (Molecular Devices, Sunnyvale, Calif., USA). […] In current clamp studies a series of depolarizing pulses (500 ms, 10 pA step) were applied from a holding potential ([…]) and the rheobase (or amount of current (pA) required for action potential generation) determined. The number of action potentials at rheobase and 2× rheobase was also determined and the resting membrane potential was noted. […]\nAction potentials were recorded in current clamp mode and the rheobase, or the amount of injected current (pA) required to elicit an action potential determined. The numbers of action potentials at rheobase and 2× rheobase were also recorded as well as noting the resting membrane potential. Data were analyzed using Prism 5 software (GraphPad Software, San Diego, Calif., USA) where appropriate, un-paired t-tests or one-way analysis of variance (ANOVA) followed by posthoc tests. […]"}, "[2]": {"tested_on": "bladder afferents of CVH mice", "assay": "Ex-vivo afferent recordings from bladder pelvic afferents during ramp distension", "type": "in vivo, C57/BL6 mice", "conditions": "vs vehicle", "protocol": "(§1) Male C57 BL/6 mice were used in all experiments. Colitis was induced by administration of TNBS as described previously (Brierley et al., (2011) J. Physiol, 15: 3575-3593, incorporated herein by reference in its entirety). Briefly, 13-week-old mice were administered an intra-colonic enema of 0.1 mL TNBS (130 μg/mL in 30% EtOH) via a polyethylene catheter inserted 3 cm from the anus of isoflurane anaesthetized mice. Mice were then individually housed and observed daily for changes in body weight, physical appearance and behavior. Histological examination of mucosal architecture, cellular infiltrate, crypt abscesses, and goblet cell depletion confirmed TNBS-induced significant damage by day 3-post treatment, largely recovered by day 7 and fully recovered at the day 28-time point (Brierley et al., (2008) Gastroenterology, 134: 2059-69, incorporated herein by reference). High-threshold nociceptors from mice at the 28 day time point display significant mechanical hypersensitivity, lower mechanical activation thresholds and display hyperalgesia and allodynia. As such, they are therefore termed ‘chronic visceral hypersensitivity’ (CVH) mice.\nPelvic bladder afferents are classified by their ability to respond to urinary bladder ramp distension. During bladder distension there is an increase in intravesical pressure and a corresponding increase in the afferent neuron activity. The mechanosensitivity of these afferents was tested in bladder preparations from healthy and CVH mice as well as CVH mice that received either a 2 week treatment of once daily oral gavage of vehicle or of linaclotide (3 μg/kg/day) by ramp distension to a final intravesical pressure of 30 mmHg.\nRecordings were made from healthy and CVH mice, which had been chronically administered either vehicle or linaclotide (3 μg/kg/day) for a total duration to 2 weeks, and which were euthanized via CO2 inhalation and cervical dislocation. The animal was cut in two at the level of L2, removing vascular connections via the aorta and vena cava, yet ensuring the kidneys and ureters remained intact. […]"}, "[3]": {"conditions": "human volunteers; cited from earlier work"}, "[4]": {"tested_on": "bladder afferents and detrusor smooth muscle of CVH mice", "assay": "Exogenous chemical stimulation of bladder afferents and bladder muscle (carbachol, αβMe-ATP, capsaicin)", "type": "in vivo, C57/BL6 mice", "conditions": "vs vehicle", "protocol": "as §1\nThe chemosensitivity of bladder afferents was also tested following isolation of pelvic afferents and catheterisation of the bladder described above. Following an equilibration period, when bladder afferent responses to ramp distension are stable, the bladder was distended to a physiological pressure of 6 mmHg above baseline. At this point, the saline perfusion is stopped but the outflow tap remains closed as to maintain the volume in the bladder. The bladder is maintained in this state to accommodate the increase in volume for 45 minutes whilst the baseline intravesical pressure and afferent firing stabilize.\nFollowing the equilibration period, the bath perfusion is briefly turned off and a bolus dose of agonist is applied. Carbachol (1 μM), αβMe-ATP (30 μM), and capsaicin (10 μM) were applied in series with a 1 hr washout period between each dose.\nChemosensitive responses were measured as the number of action potentials crossing a pre-set threshold at a given time following agonist administration. The intravesical pressure was determined as the change from baseline pressure at a given time following agonist administration.\nData are expressed as mean with the SEM, and n is the number of animals. Data were analyzed using unpaired t-test to determine significance when comparing single points or a two-way analysis of variance (ANOVA) when comparing between experimental groups throughout a ramp distension or exogenous agonist protocol. Differences were considered significant at P<0.05. […] Muscle compliance is calculated by plotting intravesical pressure against intravesical volume, which is in turn determined from the time taken to distend to a particular pressure.\nWhole nerve multifiber afferent nerve activity was quantified using the spike 2 software, which counted the number of action potentials crossing a pre-set threshold. Data are expressed as mean±SEM. n indicates the number of individual animals. Data were analyzed using Prism 5 software (GraphPad Software, San Diego, Calif., USA) where appropriate, un-paired t-tests were used, or two-way analysis of variance (ANOVA) followed by posthoc tests. Differences were considered significant at a level of *P<0.05, **P<0.01 and ***P<0.001."}},
  "note": "Where no end group is shown, it is not given here.",
  "data": [
    {"sequence": "CCEYCCNPACTGCY (cysteine pairing not given here) [linaclotide]", "values": [
      {"measurement": "resting membrane potential", "setting": "[1]", "result": "no effect"},
      {"measurement": "number of action potentials at 2× rheobase", "setting": "[1]; p=0.02", "result": "significantly decreases"},
      {"measurement": "rheobase", "setting": "[1]; p=0.02", "result": "significantly increases"},
      {"measurement": "afferent nerve activity over the time course of ramp distension", "setting": "[2]; once daily oral gavage 3 μg/kg/day for 2 weeks, FIG. 2A, P≤0.001", "result": "significant decrease"},
      {"measurement": "peak afferent response to distension", "setting": "[2]; once daily oral gavage 3 μg/kg/day for 2 weeks, FIG. 2B, P≤0.05", "result": "significant decrease"},
      {"measurement": "bladder compliance", "setting": "[2]; once daily oral gavage for 2 weeks, FIG. 2C", "result": "no change"},
      {"measurement": "oral dose found in feces", "setting": "[3]", "result": "about 5%"},
      {"measurement": "bladder afferent response to capsaicin", "setting": "[4]; capsaicin 10 μM, once daily oral gavage for 2 weeks, p≤0.01", "result": "significantly reduced"},
      {"measurement": "bladder contraction response to carbachol", "setting": "[4]; carbachol 1 μM, once daily dosing for 2 weeks", "result": "significantly reduced"},
      {"measurement": "bladder afferent response to carbachol", "setting": "[4]; carbachol 1 μM, once daily oral gavage for 2 weeks, p≤0.001", "result": "significantly reduced"},
      {"measurement": "bladder contraction response to αβMe-ATP", "setting": "[4]; αβMe-ATP 30 μM, once daily dosing for 2 weeks", "result": "significantly reduced"},
      {"measurement": "bladder afferent response to αβMe-ATP", "setting": "[4]; αβMe-ATP 30 μM, once daily oral gavage for 2 weeks, p≤0.001", "result": "significantly reduced"}
    ]}
  ]
}
